The compounds below were run against T1, Kynurenine/alpha-aminoadipate aminotransferase, mitochondrial (Homo sapiens, UniProt Q8N5Z0) (assay: Binding affinity to recombinant human KAT2 assessed as change in temperature by thermal shift assay).
Target sequence in this assay (Q8N5Z0 30-425 limits assumed): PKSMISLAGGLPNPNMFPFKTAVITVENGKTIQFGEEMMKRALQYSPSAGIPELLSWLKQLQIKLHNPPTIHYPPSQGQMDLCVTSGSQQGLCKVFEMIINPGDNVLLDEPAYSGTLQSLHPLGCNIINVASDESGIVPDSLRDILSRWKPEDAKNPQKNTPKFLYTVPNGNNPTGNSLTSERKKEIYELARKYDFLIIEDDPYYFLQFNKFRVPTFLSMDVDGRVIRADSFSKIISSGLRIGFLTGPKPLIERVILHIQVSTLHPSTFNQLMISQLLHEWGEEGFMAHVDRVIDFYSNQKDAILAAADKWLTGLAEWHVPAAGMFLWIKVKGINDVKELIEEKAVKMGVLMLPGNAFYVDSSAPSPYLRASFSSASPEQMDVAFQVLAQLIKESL

SMILES | deltaT [°C]
O=S(=O)(Nc1nnc(C2(c3ccccc3)CC2)s1)c1cc(F)cc(F)c1 | 1.7

These compounds were tested against T1, Kynurenine/alpha-aminoadipate aminotransferase, mitochondrial (assay: Reversible inhibition of recombinant human KAT2 assessed as reduction in kynurenic acid formation at 50 uM using L-kynurenine as substrate by fluorescence assay relative to control).
Target sequence in this assay (Q8N5Z0 30-425 limits assumed): as above

SMILES | inhibition [%]
O=S(=O)(Nc1nnc(C2(c3ccccc3)CC2)s1)c1cc(F)cc(F)c1 | 88
O=S(=O)(NC1CCNC1)c1ccc(Cl)cc1C(F)(F)F (stereo unspecified) | 57
O=S(=O)(Nc1nnc(CC2CCCC2)o1)c1ccccc1 | 47

What follows are compounds tested against T1, Kynurenine/alpha-aminoadipate aminotransferase, mitochondrial (assay: Reversible inhibition of recombinant human KAT2 assessed as reduction in kynurenic acid formation using L-kynurenine as substrate by fluorescence assay).
Target sequence in this assay (Q8N5Z0 whole entry): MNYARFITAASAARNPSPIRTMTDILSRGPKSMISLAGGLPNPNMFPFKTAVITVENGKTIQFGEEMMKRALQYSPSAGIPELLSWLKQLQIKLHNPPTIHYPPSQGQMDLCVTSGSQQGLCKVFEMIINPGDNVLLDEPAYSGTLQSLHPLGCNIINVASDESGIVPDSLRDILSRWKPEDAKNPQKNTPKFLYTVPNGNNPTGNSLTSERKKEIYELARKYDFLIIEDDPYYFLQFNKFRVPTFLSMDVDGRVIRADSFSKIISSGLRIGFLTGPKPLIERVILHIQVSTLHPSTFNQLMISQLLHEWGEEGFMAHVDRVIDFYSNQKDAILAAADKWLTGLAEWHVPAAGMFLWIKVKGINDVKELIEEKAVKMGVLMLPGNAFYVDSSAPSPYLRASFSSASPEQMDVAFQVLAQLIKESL

SMILES | IC50 [µM]
O=S(=O)(Nc1nnc(C2(c3ccccc3)CC2)s1)c1cc(F)cc(F)c1 | 16
CC(C)C(Cc1nnc(NS(=O)(=O)c2cc(F)cc(F)c2)s1)c1cccc(F)c1 (stereo unspecified) | 1.6
CCc1cccc(NC(=O)N2CCCC3(CCC(=O)N(CCC(C)C)C3)C2)c1 (racemic) | 8
Cc1ccc(NC(=O)N2CCCC3(CCC(=O)N(CCC(C)C)C3)C2)cc1Cl (racemic) | 0.81
CCc1cccc(NC(=O)N2CCCC3(CCC(=O)N(CCC(C)C)C3)C2)c1 (stereo in doubt; 7 E1) | 4.4
CCc1cccc(NC(=O)N2CCCC3(CCC(=O)N(CCC(C)C)C3)C2)c1 (stereo in doubt; 7 E2) | 97
Cc1cc(C)cc(NC(=O)N2CCCC3(CCC(=O)N(C4CC4)C3)C2)c1 (stereo in doubt; 9 E1) | 4.5
Cc1cc(C)cc(NC(=O)N2CCCC3(CCC(=O)N(C4CC4)C3)C2)c1 (stereo in doubt; 9 E2) | 74.9
O=C1CCC2(CCCN(C(=O)Nc3ccc(F)c(Cl)c3)C2)CN1CC1CC1 (stereo in doubt; 10 E1) | 2.4
O=C1CCC2(CCCN(C(=O)Nc3ccc(F)c(Cl)c3)C2)CN1CC1CC1 (stereo in doubt; 10 E2) | 96.5
COc1ccc(NC(=O)N2CCCC3(CCC(=O)N(C4CC4)C3)C2)cc1 (stereo in doubt; 11 E1) | > 100
COc1ccc(NC(=O)N2CCCC3(CCC(=O)N(C4CC4)C3)C2)cc1 (stereo in doubt; 11 E2) | 15.5

From ChEMBL document CHEMBL4627313, “Discovery of sulfonamides and 9-oxo-2,8-diazaspiro[5,5]undecane-2-carboxamides as human kynurenine aminotransferase 2 (KAT2) inhibitors” (Bioorg Med Chem Lett, 2020)
